Measurements taken from paper PMC7279002, “Novel 3′-Substituted-1′,2′,4′-Oxadiazole Derivatives of 18βH-Glycyrrhetinic Acid and Their O-Acylated Amidoximes: Synthesis and Evaluation of Antitumor and Anti-Inflammatory Potential In Vitro and In Vivo” (International Journal of Molecular Sciences, 2020).
Where two headings read alike, the source gives them in different places.

What was measured:
[1] = system: human duodenal carcinoma HuTu-80; test: MTT cytotoxicity assay, 48 h; format: cell-based; conditions: for IC50: MTT, 48 h, read-out: IC50, µM Duodenum HuTu-80; for Selectivity index: HuTu-80: IC50 in hFF3 / IC50 in HuTu-80
Experimental: (§1) On the first step of the biological evaluation of novel GA derivatives 3a-h, 4a-h, and 5a-h, we analyzed their cytotoxicity in a panel of cultured mammalian cells, including human cervical carcinoma HeLa and KB-3-1, human duodenal carcinoma HuTu-80, human lung adenocarcinoma A549, murine melanoma B16 cell lines, and nontransformed human fibroblasts hFF3. The cells were treated with derivatives for 48 h and cell viability was evaluated by 3-(4, 5-dimethylthiazol-2-yl)-2, 5-diphenyltetrazolium bromide (MTT) assay. Since the studied compounds contain two types of functional groups at position 3-acetoxy- or the hydroxyl-group, 3-acetoxy-GA 1 and GA-Me were used as references. Additionally, hierarchical clustering of cytotoxic data was carried out in order to reveal groups of compounds with similar cytotoxic profiles (Figure 2A).
(§2) Human cervical carcinoma HeLa and KB-3-1 cells, human duodenal carcinoma HuTu-80 cells, and human lung adenocarcinoma A549 cells were obtained from the Russian Culture Collection (Institute of Cytology, RAS, St. Petersburg, Russia). Melanoma B16-F10 (hereafter, melanoma B16) cells were obtained from the Cell Culture Bank of the Blokhin National Medical Oncology Research Center (Moscow, Russia). Nonmalignant fibroblasts hFF3 and RAW264.7 macrophages were kindly provided by Dr. Olga A. Koval (Institute of Chemical Biology and Fundamental Medicine, SB RAS, Novosibirsk, Russia) and Prof. Dmitry Kuprash (Engelhardt Institute of Molecular Biology, RAS, Moscow, Russia), respectively. The cells were cultured in DMEM (Sigma-Aldrich Inc., St. Louis, MO, USA) supplemented with 10% (v/v) heat-inactivated fetal bovine serum (FBS) (BioloT, St. Petersburg, Russia) and antibiotic–antimycotic solution (100 U/mL penicillin, 100 µg/mL streptomycin, 0.25 µg/mL amphotericin). […] The cells were incubated at 37 °C in a humidified 5% CO2-containing air atmosphere (hereafter referred to as standard conditions). GA derivatives were dissolved in DMSO (stock solutions: 10 mM) and stored at −20 °C prior to use.
(§3) Cells were seeded in tetra- or pentaplicates in 96-well plates at a density of 10^4 (tumor cells and […] fibroblasts) or 10^5 (RAW264.7 cells) cells per well. Cells were incubated under standard conditions for 24 h, followed by their treatment with the investigated derivatives (0.5–50 µM) or corresponding concentrations of DMSO (control) for a further 48 h (tumor cells and fibroblasts) or 24 h (RAW264.7 cells). At the end of incubation period, 10 µL of MTT solution was added to the cells (final concentration: 0.5 mg/mL) and plates were incubated for an additional 2 h under standard conditions. Then, the MTT-containing medium was aspirated and formazan crystals formed in living cells were solubilized with 100 µL of DMSO. The absorbance of each well was read at test and reference wavelengths of 570 and 620 nm, respectively, on a Multiscan RC plate reader (Thermo LabSystems, Helsinki, Finland). The IC50 values (the concentration of compounds leading to a decrease of A570 to 50% of A570^control) were calculated by extrapolation of the dose–response curves. […] A heatmap of SI values was constructed by Microsoft Excel 2010.

murine melanoma B16 = test: MTT cytotoxicity assay, 48 h; format: cell-based; conditions: for Selectivity index: B16: IC50 in hFF3 / IC50 in B16; for IC50: MTT, 48 h
Experimental: as §1, §2, §3

[2] = system: human lung adenocarcinoma A549; test: MTT cytotoxicity assay, 48 h; format: cell-based; conditions: for IC50: MTT, 48 h; for Selectivity index: A549: IC50 in hFF3 / IC50 in A549
Experimental: as §1, §2, §3

[3] = system: nontransformed human fibroblasts hFF3; test: MTT cytotoxicity assay, 48 h; format: cell-based
Experimental: as §1, §2, §3

[4] = system: human cervical carcinoma KB-3-1; test: MTT cytotoxicity assay, 48 h; format: cell-based; conditions: for IC50: MTT, 48 h, read-out: IC50, µM Cervix KB-3-1; for Selectivity index: KB-3-1: IC50 in hFF3 / IC50 in KB-3-1
Experimental: as §1, §2, §3

[5] = system: human cervical carcinoma HeLa; test: MTT cytotoxicity assay, 48 h; format: cell-based; conditions: for IC50: MTT, 48 h, read-out: IC50, µM Cervix HeLa; for Selectivity index: HeLa: IC50 in hFF3 / IC50 in HeLa
Experimental: as §1, §2, §3

[6] = system: HeLa, KB-3-1, HuTu-80, A549, B16 and hFF3 cells; test: MTT cytotoxicity, summary over the panel of cell lines; format: cell-based
Experimental: as §1, §3

[7] = Homo sapiens, HFF-3, read-out: IC50, µM Fibroblast hFF3
[8] = median over all tested cell lines, read-out: median IC50

Compound | melting point | IC50 ([1]; Homo sapiens, HuTu80) [µM] | Selectivity index: HuTu-80 [1] | Selectivity index: B16 (murine melanoma B16) | IC50 (murine melanoma B16; Mus musculus) [µM] | IC50 ([2]; Homo sapiens, A549) [µM] | Selectivity index: A549 [2] | IC50 [3, 7] [µM] | IC50 ([4]; Homo sapiens, KB 3-1) [µM] | Selectivity index: KB-3-1 [4] | IC50 ([5]; Homo sapiens, HeLa) [µM] | Selectivity index: HeLa [5] | IC50 [6, 8] [µM] | also measured
CC(=O)O[C@H]1CC[C@@]2(C)C(CC[C@]3(C)C2C(=O)C=C2[C@@H]4C[C@@](C)(C(=O)O/N=C(\C)N)CC[C@]4(C)CC[C@]23C)C1(C)C (some centres unmarked) [Compound 3a] | 112.8 to 117.3 °C | 2.3 ± 0.1 | 0.7 | 0.3 | 6.8 ± 0.2 | 2.6 ± 0.1 | 0.7 | 1.7 ± 0.1 | 5.9 ± 0.2 | 0.3 | 2.6 ± 0.1 | 0.7 | 2.6 | 
CC(=O)O[C@H]1CC[C@@]2(C)C(CC[C@]3(C)C2C(=O)C=C2[C@@H]4C[C@@](C)(c5nc(-c6ccccn6)no5)CC[C@]4(C)CC[C@]23C)C1(C)C (stereo partly drawn) [Compound 4f, 30-nor-3β-acetoxy-11-oxo-20-(3′-(pyridin-2′′-yl)-1′,2′,4′-oxadiazol-5′-yl)-18βH-olean-12-en] | 293.5 to 297.9 °C | 11.4 ± 1 | 1.0 | 1.9 | 6 ± 2.3 | 40.3 ± 4.1 | 0.3 | 11.5 ± 1 | 10.3 ± 1.2 | 1.1 | 17.9 ± 7.7 | 0.6 | 11.5 | 
CC(=O)O[C@H]1CC[C@@]2(C)C(CC[C@]3(C)C2C(=O)C=C2[C@@H]4C[C@@](C)(c5nc(-c6ccncc6)no5)CC[C@]4(C)CC[C@]23C)C1(C)C (stereo partly drawn) [Compound 4h, 30-nor-3β-acetoxy-11-oxo-20-(3′-(pyridin-4″-yl)-1′,2′,4′-oxadiazol-5′-yl)-18βH-olean-12-en] | 265.3 to 267.3 °C | 49.7 ± 2.4 | >1.0 |  | > 50 | > 50 |  | > 50 | > 50 |  | > 50 |  |  | cytotoxicity in all tested cell lines [6]: nontoxic; IC50 ([6]; read-out: IC50 values with respect to all tested cell lines): ≥ 50 µM
CC(C)(C)c1noc([C@@]2(C)CC[C@]3(C)CC[C@]4(C)C(=CC(=O)C5[C@@]6(C)CC[C@H](O)C(C)(C)C6CC[C@]54C)[C@@H]3C2)n1 (stereo partly drawn) [Compound 5d, 30-nor-3β-hydroxy-11-oxo-20-(3′-tert-butyl-1′,2′,4′-oxadiazol-5′-yl)-18βH-olean-12-en] | 227.8 °C (dec.) | 8.8 ± 1.1 | 2.5 | 1.9 | 11.3 ± 1.9 | 23.5 ± 6.3 | 0.9 | 21.6 ± 3.4 | 22.3 ± 3.7 | 1.0 | 3.7 ± 0.9 | 5.8 | 16.5 | 
CC1(C)C2CC[C@]3(C)C(C(=O)C=C4[C@@H]5C[C@@](C)(c6nc(-c7ccccc7)no6)CC[C@]5(C)CC[C@]43C)[C@@]2(C)CC[C@@H]1O (stereo partly drawn) [Compound 5e, 30-nor-3β-hydroxy-11-oxo-20-(3′-phenyl-1′,2′,4′-oxadiazol-5′-yl)-18βH-olean-12-en] | 231.7 to 232.1 °C | > 50 |  |  | > 50 | > 50 |  | > 50 | > 50 |  | 20.3 ± 2.2 | > 2.5 |  | cytotoxicity in all tested cell lines [6]: nontoxic
COC(=O)[C@@]1(C)CC[C@]2(C)CC[C@]3(C)C(=CC(=O)[C@@H]4[C@@]5(C)CC[C@H](O)C(C)(C)[C@@H]5CC[C@]43C)[C@@H]2C1 [GA-Me, reference compound] |  |  | 10.9 | 10.9 |  |  | 8.2 |  |  | 10.9 |  | 6.1 | 1.1 | IC50 [1]: 1.6 ± 0.5 µM; IC50 (murine melanoma B16): 0.9 ± 0.1 µM; IC50 [2]: 1.2 ± 0.1 µM; IC50 ([3]; read-out: IC50, µM Fibroblast hFF3): 9.8 ± 1 µM; IC50 [4]: 0.9 ± 0.1 µM; IC50 [5]: 0.9 ± 0.1 µM; median SI ([6]; in all tumor cells): 10.9
CC(C)c1noc([C@@]2(C)CC[C@]3(C)CC[C@]4(C)C(=CC(=O)C5[C@@]6(C)CC[C@H](O)C(C)(C)C6CC[C@]54C)[C@@H]3C2)n1 (stereo partly drawn) [Compound 5c, 30-nor-3β-hydroxy-11-oxo-20-(3′-isopropyl-1′,2′,4′-oxadiazol-5′-yl)-18βH-olean-12-en] | 216.4 to 219.7 °C | 9.5 ± 0.5 | 0.6 | 0.8 | 6.6 ± 0.1 | 4.5 ± 1.1 | 1.2 | 5.6 ± 1 | 5.9 ± 0.1 | 0.9 | 2.6 ± 0.1 | 2.2 | 5.8 | 
CC(=O)O[C@H]1CC[C@@]2(C)C(CC[C@]3(C)C2C(=O)C=C2[C@@H]4C[C@@](C)(c5nc(-c6cccnc6)no5)CC[C@]4(C)CC[C@]23C)C1(C)C (stereo partly drawn) [Compound 4g, 30-nor-3β-acetoxy-11-oxo-20-(3′-(pyridin-3′′-yl)-1′,2′,4′-oxadiazol-5′-yl)-18βH-olean-12-en] | 253.2 °C (dec.) | 5.8 ± 0.5 | > 8.6 |  | > 50 | 49.7 ± 4.5 | >1.0 | > 50 | 9.5 ± 0.5 | > 5.3 | > 50 |  | 49.9 | 
